Assay results taken from patent US9572760B2, “Uses of compounds and mixtures from Antrodia cinnamomea mycelia” (Simpson Biotech Co., Ltd., priority 2013, dated 2017).

Legend:
[1] = test system: CuZnSOD, MnSOD, Catalase, Glutathione peroxidase, NADPH oxidase; assay: Real-time RT-PCR of oxidative stress genes (anti-oxidant enzymes, NADPH oxidase) in liver of cirrhotic animals; assay type: in vivo, Wistar rats; conditions: compound B 7 mg/kg, compound C 14 mg/kg, ACM 320 mg/kg
Experimental: Sample tissues of rat livers were measured about 0.5×0.5 cm in area. Each of tissue was homogenized in 1 mL of TRIzol buffer (Invitrogen, Carlsbad, Calif., USA) with a motorized pestle, and then mixed with 0.5 mL chloroform/isoamyl alcohol (24:1), and was centrifuged at 12,000×g for 10 min at 4° C. The supernatant was transferred to a fresh tube, and isopropanol was added, mix well and stored at −80° C. overnight. The reaction mixture was centrifuged at 12,000×g for 30 min at 4° C. to produce a rude RNA pallet, the pellet was washed with 70% ethanol and air-dried. The concentrations of total RNA were measured by absorbance at 260 nm using a NanoDrop ND-1000 (NanoDrop, USA). Reverse transcription reaction was performed using a commercially available set of High Capacity RNA-to-cDNA Kit (Applied Biosystems, USA). cDNA was prepared from 2 μg of total RNA per 20 μl reaction, according to the manufacturer's instructions—37° C. for 60 minutes, 95° C. for 5 minutes, and hold at 4° C. The resulting cDNA was to a final concentration of 100 ng/μl and constituted a matrix in further experiments. Amplification and detection the gene expression by real-time PCR were performed using StepOne plus Real-time PCR System (Applied Biosystems, USA). Samples were assayed in a 10 μl reaction mixture containing 2 μl of template DNA, 5 μl of 2× TaqMan PCR Master Mix (Applied Biosystems, Life Technologies, Foster City, Calif., USA), 0.5 μl of 20× assay mix containing probe, forward and reverse primer (Applied Biosystems, Life Technologies, Foster City, Calif., USA), whereby qPCR targets with the following information were used: (a) Rat α-SMA, Assay ID Rn01759928_g1, (b) Rat TIMP, Assay ID Rn00587558_m1, (c) Rat TGF-β1, Assay ID Rn00572010_m1, (d) Rat Collagen I, Assay ID Rn 01463838_m1, (e) Rat CuZnSOD, Assay ID Rn00566938_m1, (f) Rat MnSOD, Assay ID Rn00690587_g1, (g) Rat Catalase, Assay ID Rn00560930_m1, (h) Rat Glutathione peroxidase, Assay ID Rn00577994_g1, (i) Rat NADPH oxidase, Assay ID Rn00585380_m1 and (j) Rat GAPDH, Assay ID Rn1462662_g1. To control variation in mRNA concentration, all results were normalized to the housekeeping gene, GAPDH. Relative quantitation was performed using the comparative ΔΔCt method according to the manufacture's instructions. The cycling conditions used were as follows: 50° C. for 2 min, 95° C. for 10 min followed by 40 cycles of 95° C. for 15 s and 60° C. for 1 min each.

cirrhotic animals = assay: Biochemical analysis of serum (liver damage parameters) in DEN cirrhotic animal model; assay type: in vivo, Wistar rats; conditions: compound B 7 mg/kg, compound C 14 mg/kg, ACM 320 mg/kg/day, gastric tube, 5th to 11th week, vs control group
Experimental: Samples of 1 ml blood were gathered from the retro-orbital plexus of each […] and immediately centrifuged at 1300×g at 4° C., plasma was kept at −20° C. for liver function tests. Alanine aminotranferease (ALT), aspartate aminotransferase (AST), total bilirubin and Gamma-glutamyl transpeptidase (γ-GT) levels were determined using commercial enzymatic kits with a colorimetric analyzer (Dri-Chem 3000, Fuji Photo Film Co, Tokyo, Japan).

α-SMA and TGF-β1 = assay: Western blot of α-SMA and TGF-β1 in rabbit ear scar tissue; assay type: in vivo, New Zealand white rabbits; conditions: 1% w/v topical; for level of TGF-β1 expression (Western blot): day 14, compared with the control groups; for levels of α-SMA expression (Western blot): relative to the control group
Experimental: The rabbit ear model of hypertrophic scarring was established. In brief, 12 New Zealand white rabbits, weighing 2.5 to 3.0 kg, were prepared for wounding under sterile conditions. Four 1 cm full thickness circular wounds were created down to the cartilage on the ventral side of each ear using a 1 cm punch biopsy. The perichondrial membrane was then dissected off the cartilage using a surgical blade. The test agents including compound B, C and ACM ethanol extract were applied to the wounds of the experimental group ([…] to each wound) every day in concentrations of 1% w/v for 14 days, while the control group received equal amounts of 1% w/v saline.
The scar tissues were lysed; then the protein samples were denatured and then separated on 10.6% polyacrylamide gels, and transferred to the polyvinylidene difluoride membrane. The membranes were incubated in TBS containing 5% nonfat milk and 0.05% Tween-20 for 1 h at room temperature and blotted with primary antibodies (dilution 1:300) at 4° C. overnight. The membranes were washed with TBST for 15 min the next day. Subsequently, the membranes were incubated with horseradish peroxidase-conjugated affinipure goat anti-rabbit antibody (dilution 1:3000) for 1 h at room temperature and washed with TBST for 21 min. The membranes were then detected using ECL. The western blot results were further analyzed with Quantity One software 4.1.1 (Bio-Rad, Hercules, Calif.)

SMILES | Catalase gene expression in liver [1] | CuZnSOD gene expression in liver [1] | Glutathione peroxidase gene expression in liver [1] | MnSOD gene expression in liver [1] | NADPH oxidase gene expression in liver [1] | serum Alanine aminotranferease (ALT) level (cirrhotic animals) | serum Gamma-glutamyl transpeptidase (γ-GT) level (cirrhotic animals) | serum aspartate aminotransferase (AST) level (cirrhotic animals) | serum total bilirubin level (cirrhotic animals) | level of TGF-β1 expression (Western blot) (α-SMA and TGF-β1) | levels of α-SMA expression (Western blot) (α-SMA and TGF-β1)
CC(C)=CCOc1ccc(C2=C(CC(C)C)C(=O)N(O)C2=O)cc1 [Compound C, 3-isobutyl-4-[4-(3-methyl-2-butenyloxy)phenyl]-1H-pyrrol-1-ol-2,5-dione] | up-regulated significantly | up-regulated significantly | up-regulated significantly | up-regulated significantly | down-regulated significantly | significantly reduced | significantly reduced | significantly reduced | significantly reduced | significantly decreased | decreased
CC(C)=CCOc1ccc(C2=C(CC(C)C)C(=O)NC2=O)cc1 [Compound B, 3-isobutyl-4-[4-(3-methyl-2-butenyloxy)phenyl]-1H-pyrrol-2,5-dione] | up-regulated significantly | up-regulated significantly | up-regulated significantly | up-regulated significantly | down-regulated significantly | significantly reduced | significantly reduced | significantly reduced | significantly reduced | significantly decreased | decreased
